Assay results as given in patent US20100056565A1, “Heterocyclic Derivatives as M3 Muscarinic Receptors” (priority 2007, published 2010).
Where a name gives a salt, the structure may show the parent alone.

molecular target: T1, Recombinant human M3 receptor (Homo sapiens, UniProt P20309); assay: biochemical; format: binding; settings: M3 Ki (SPA format, SPA format)
T1 construct: expressed in transfected cells; host or cells: CHO-K1 cells (membranes)
Description: Recombinant human M3 receptor was expressed in CHO-K1 cells. Cell membranes were prepared and binding of [3H]-N-methyl scopolamine ([3H]-NMS) and compounds was assessed by a scintillation proximity assay (SPA). The incubation time was 16 hours at room temperature in the presence of 1% (v/v) DMSO. The assay was performed in white 96 well clear-bottomed NBS plates (Corning). Prior to the assay, the CHO cell membranes containing M3 receptor were coated onto SPA WGA (Wheat germ agglutinin) beads (GE Healthcare). Non specific binding was determined in the presence of 1 μM Atropine.
Radioactivity was measured on a Microbeta scintillation counter (PerkinElmer) using a 3H protocol with a 2 minutes per well read time. […] Concentration dependent inhibition of [3H]-NMS binding by compounds was expressed as pIC50.

T1 sequence (P20309 whole entry): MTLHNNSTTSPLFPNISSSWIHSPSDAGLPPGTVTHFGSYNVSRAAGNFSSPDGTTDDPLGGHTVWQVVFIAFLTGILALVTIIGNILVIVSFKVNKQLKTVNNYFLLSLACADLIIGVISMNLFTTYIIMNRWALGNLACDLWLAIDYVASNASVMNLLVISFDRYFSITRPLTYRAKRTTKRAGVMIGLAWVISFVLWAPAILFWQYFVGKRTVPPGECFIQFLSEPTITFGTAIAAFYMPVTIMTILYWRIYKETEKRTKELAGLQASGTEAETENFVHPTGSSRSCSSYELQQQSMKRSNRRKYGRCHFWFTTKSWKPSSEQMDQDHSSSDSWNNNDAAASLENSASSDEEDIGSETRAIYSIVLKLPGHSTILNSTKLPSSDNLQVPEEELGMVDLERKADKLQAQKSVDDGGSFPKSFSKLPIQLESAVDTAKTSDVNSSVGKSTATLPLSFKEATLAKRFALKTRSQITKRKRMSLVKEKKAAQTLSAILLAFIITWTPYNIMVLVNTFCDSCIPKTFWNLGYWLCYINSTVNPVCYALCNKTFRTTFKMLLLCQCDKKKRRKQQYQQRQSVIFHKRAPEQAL

Structure (SMILES)	Ki
O=C(O[C@H]1C[N+]2(Cc3cnc([C@](O)(c4ccccc4)C4CCCCC4)o3)CCC1CC2)c1ccccc1 [Example 14, (R)-3-benzoyloxy-1-[2-((R)-cyclohexyl-hydroxy-phenyl-methyl)-oxazol-5-ylmethyl]-1-azonia-bicyclo[2.2.2]octane; formate]	5 to 20 nM

same assay, conditions: SPA format; read-out: M3 Ki (SPA format)

Structure (SMILES)	Ki
OC(c1ccccc1)(c1noc(C[N+]23CCC(CC2)[C@@H](SCc2ccccc2)C3)n1)C1CCCCC1 (single isomer, unassigned) [Example 127]	< 5 nM
OC(c1ccccc1)(c1cc(C[N+]23CCC(CC2)[C@@H](CSc2ccccc2)C3)on1)C1CCCCC1 (single isomer, unassigned) [Example 124]	< 5 nM
O[C@](c1ccccc1)(c1nnc(C[N+]23CCC(CC2)[C@@H](Oc2cccc(F)c2)C3)o1)C1CCCCC1 [Example 134, (R)-1-[5-((R)—Cyclohexyl-hydroxy-phenyl-methyl)-[1,3,4]oxadiazol-2-ylmethyl]-3-(3-fluoro-phenoxy)-1-azonia-bicyclo[2.2.2]octane; bromide]	< 5 nM
OC(c1ccccc1)(c1noc(C[N+]23CCC(CC2)[C@@H](Oc2cccc(F)c2)C3)n1)C1CCCCC1 (single isomer, unassigned) [Example 128]	< 5 nM
C=CCOCC1C[N+]2(Cc3cnc([C@](O)(c4ccccc4)C4CCCCC4)o3)CCC1CC2 (single isomer, unassigned) [Example 89, formate]	< 5 nM
O[C@](c1ccccc1)(c1ncc(C[N+]23CCC(CC2)[C@@H](CSc2ccccc2)C3)o1)C1CCCCC1 [Example 100, (R)-1-[2-((R)—Cyclohexyl-hydroxy-phenyl-methyl)-oxazol-5-ylmethyl]-3-phenylsulfanylmethyl-1-azonia-bicyclo[2.2.2]octane; bromide]	< 5 nM
OC(c1ccccc1)(c1ccccc1)c1ncc(C[N+]23CCC(CC2)[C@@H](Oc2ccc(F)cc2)C3)o1 [Example 72, (R)-3-(4-Fluoro-phenoxy)-1-[2-(hydroxy-diphenyl-methyl)-oxazol-5-ylmethyl]-1-azonia-bicyclo[2.2.2]octane; bromide]	< 5 nM
O[C@](c1ccccc1)(c1ncc(C[N+]23CCC(CC2)[C@H](CSc2ccc(Cl)cc2)C3)o1)C1CCCCC1 [Example 110, (S)-3-(4-Chloro-phenylsulfanylmethyl)-1-[2-((R)cyclohexyl-hydroxy-phenyl-methyl)-oxazol-5-ylmethyl]-1-azonia-bicyclo[2.2.2]octane; bromide]	< 5 nM
OC(c1ccccc1)(c1ccccc1)c1ncc(C[N+]23CCC(CC2)C(CCc2ccccc2)C3)o1 (centres unmarked) [Example 37, 1-[2-(Hydroxy-diphenyl-methyl)-oxazol-5-ylmethyl]-3-phenethyl-1-azonia-bicyclo[2.2.2]octane; bromide]	< 5 nM
OC(c1ccccc1)(c1ccccc1)c1ncc(C[N+]23CCC(CC2)[C@@H](Sc2ccccc2)C3)o1 [Example 68, 1-[2-(Hydroxy-diphenyl-methyl)-oxazol-5-ylmethyl]-3-phenylsulfanyl-1-azonia-bicyclo[2.2.2]octane; bromide]	< 5 nM
C=C(C)CO[C@H]1C[N+]2(Cc3cnc([C@](O)(c4ccccc4)C4CCCCC4)o3)CCC1CC2 [Example 112, (R)-1-[2-((R)—Cyclohexyl-hydroxy-phenyl-methyl)-oxazol-5-ylmethyl]-3-(2-methyl-allyloxy)-1-azonia-bicyclo[2.2.2]octane; bromide]	< 5 nM
OC(c1ccccc1)(c1ccccc1)c1ncc(C[N+]23CCC(CC2)[C@@H](COc2ccccc2)C3)o1 [Example 26, (R)-1-[2-(Hydroxy-diphenyl-methyl)-oxazol-5-ylmethyl]-3-phenoxymethyl-1-azonia-bicyclo[2.2.2]octane; bromide]	< 5 nM
OC(c1ccccc1)(c1ccccc1)c1noc(C[N+]23CCC(CC2)[C@@H](Oc2ccccc2)C3)n1 [Example 103, (R)-1-[3-(Hydroxy-diphenyl-methyl)-[1,2,4]oxadiazol-5-ylmethyl]-3-phenoxy-1-azonia-bicyclo[2.2.2]octane; chloride]	< 5 nM
O[C@](c1ccccc1)(c1ncc(C[N+]23CCC(CC2)[C@H](CSc2ccc(F)cc2)C3)o1)C1CCCCC1 [Example 109, (S)-1-[2-((R)—Cyclohexyl-hydroxy-phenyl-methyl)-oxazol-5-ylmethyl]-3-(4-fluoro-phenylsulfanylmethyl)-1-azonia-bicyclo[2.2.2]octane; bromide]	< 5 nM
O[C@](c1ccccc1)(c1ncc(C[N+]23CCC(CC2)[C@H](SCc2ccccc2)C3)o1)C1CCCCC1 [Example 40, (S)-3-Benzylsulfanyl-1-[2-((R)-cyclohexyl-hydroxy-phenyl-methyl)-oxazol-5-ylmethyl]-1-azonia-bicyclo[2.2.2]octane; bromide]	< 5 nM
O[C@](c1ccccc1)(c1ncc(C[N+]23CCC(CC2)[C@@H](SC2CCCCC2)C3)o1)C1CCCCC1 [Example 119, (R)-1-[2-((R)—Cyclohexyl-hydroxy-phenyl-methyl)-oxazol-5-ylmethyl]-3-cyclohexylsulfanyl-1-azonia-bicyclo[2.2.2]octane; bromide]	< 5 nM

Structure (SMILES)	Ki
OC(c1ccccc1)(c1ccccc1)c1ncc(C[N+]23CCC(CC2)C(SCc2ccccc2)C3)o1 (centres unmarked) [Example 39, 3-Benzylsulfanyl-1-[2-(hydroxy-diphenyl-methyl)-oxazol-5-ylmethyl]-1-azonia-bicyclo[2.2.2]octane; bromide,]	5 to 20 nM
OC(c1ccccc1)(c1ncc(C[N+]23CCC(CC2)C(CSc2ccccc2)C3)o1)C1CCC1 (single isomer, unassigned) [Example 122]	< 5 nM
O[C@](c1ccccc1)(c1nnc(C[N+]23CCC(CC2)[C@@H](Sc2ccccc2)C3)o1)C1CCCCC1 [Example 71, 1-[5-((R)—Cyclohexyl-hydroxy-phenyl-methyl)-[1,3,4]oxadiazol-2-ylmethyl]-3-phenylsulfanyl-1-azonia-bicyclo[2.2.2]octane; bromide]	< 5 nM
OC(c1ccccc1)(c1ccccc1)c1noc(C[N+]23CCC(CC2)[C@@H](Oc2cccc(F)c2)C3)n1 [Example 94, (R)-3-(3-Fluoro-phenoxy)-1-[3-(hydroxy-diphenyl-methyl)-[1,2,4]oxadiazol-5-ylmethyl]-1-azonia-bicyclo[2.2.2]octane; chloride]	< 5 nM
N#Cc1cccc(O[C@H]2C[N+]3(Cc4cnc(C(O)(c5ccccc5)c5ccccc5)o4)CCC2CC3)c1 [Example 80, (R)-3-(3-cyano-phenoxy)-1-[2-(hydroxy-diphenyl-methyl)-oxazol-5-ylmethyl]-1-azonia-bicyclo[2.2.2]octane; bromide]	< 5 nM
Cc1ccc(O[C@H]2C[N+]3(Cc4cnc(C(O)(c5ccccc5)c5ccccc5)o4)CCC2CC3)cc1Cl [Example 59, (R)-3-(3-Chloro-4-methyl-phenoxy)-1-[2-(hydroxy-diphenyl-methyl)-oxazol-5-ylmethyl]-1-azonia-bicyclo[2.2.2]octane; bromide]	< 5 nM
O[C@](c1ccccc1)(c1ncc(C[N+]23CCC(CC2)[C@@H](Oc2cccc(F)c2)C3)o1)C1CCCCC1 [Example 67, (R)-1-[2-((R)—Cyclohexyl-hydroxy-phenyl-methyl)-oxazol-5-ylmethyl]-3-(3-fluoro-phenoxy)-1-azonia-bicyclo[2.2.2]octane; bromide]	< 5 nM
Cc1ccc(O[C@H]2C[N+]3(Cc4nc(C(O)(c5ccccc5)C5CCCCC5)no4)CCC2CC3)cc1Cl (single isomer, unassigned) [Example 129]	< 5 nM
O[C@](c1ccccc1)(c1ncc(C[N+]23CCC(CC2)[C@@H](OCc2cccc(F)c2)C3)o1)C1CCCCC1 [Example 35, (R)-1-[2-((R)-cyclohexyl-hydroxy-phenyl-methyl)-oxazol-5-ylmethyl]-3-(3-fluoro-benzyloxy)-1-azonia-bicyclo[2.2.2]octane; formate]	< 5 nM
OC(c1ccccc1)(c1ccccc1)c1ncc(C[N+]23CCC(CC2)C(COc2cccc(F)c2)C3)o1 (single isomer, unassigned) [Example 83, 3-(3-Fluoro-phenoxymethyl)-1-[2-(hydroxy-diphenyl-methyl)-oxazol-5-ylmethyl]-1-azonia-bicyclo[2.2.2]octane; bromide]	5 to 20 nM
OC(c1ccccc1)(c1cc(C[N+]23CCC(CC2)C(CSc2ccc(F)cc2)C3)on1)C1CCCCC1 (single isomer, unassigned) [Example 125]	5 to 20 nM
O[C@](c1ccccc1)(c1ncc(C[N+]23CCC(CC2)[C@@H](OCc2ccc(C(F)(F)F)cc2)C3)o1)C1CCCCC1 [Example 33, (R)-1-[2-((R)—Cyclohexyl-hydroxy-phenyl-methyl)-oxazol-5-ylmethyl]-3-(4-trifluoromethyl-benzyloxy)-1-azonia-bicyclo[2.2.2]octane; bromide]	< 5 nM
O[C@@](c1ccccc1)(c1ncc(C[N+]23CCC(CC2)[C@@H](Oc2ccccc2)C3)o1)C1CCCCC1 [Example 7, (R)-1-[2-((S)—Cyclohexyl-hydroxy-phenyl-methyl)-oxazol-5-ylmethyl]-3-phenoxy-1-azonia-bicyclo[2.2.2]octane bromide]	5 to 20 nM
Cc1ccc(O[C@H]2C[N+]3(Cc4cnc(C(O)(c5ccccc5)c5ccccc5)o4)CCC2CC3)cc1 [Example 58, (R)-1-[2-(Hydroxy-diphenyl-methyl)-oxazol-5-ylmethyl]-3-p-tolyloxy-1-azonia-bicyclo[2.2.2]octane; bromide]	< 5 nM
OC(c1ccccc1)(c1noc(C[N+]23CCC(CC2)[C@@H](OCc2ccc(F)cc2)C3)n1)C1CCCCC1 (single isomer, unassigned) [Example 130]	< 5 nM
